Laboratory results as given in US5563176A (priority 1994, dated 1996).
Like-named read-outs stand apart in the source and are kept apart here.

Legend:
[1] = tested on: Molt-4 (human T-cell leukemia) xenograft; test: Molt-4 xenograft in athymic Balb/c nu/nu mice; type: in vivo; conditions: Molt-4, athymic mice; FIG. 4
CEM VM-1 variant cells = test: sensitivity of mdr lines, CEM VM-1; type: cell-based; conditions: Homo sapiens, CEM-VM1
SL-2, murine (thymic) = test: inhibition of thymidine incorporation after two hour exposure, SL-2; type: cell-based; conditions: Mus musculus, 2 h; Table 1; SL-2, two hour exposure
Procedure: (§1) To assess cytotoxic effects, various concentrations of illudins were added to cultures of cells for 48 hours, then cell growth/viability was determined by trypan blue exclusion. As an alternative to 48 hour continuous exposure studies, cells were plated in liquid culture in 96 well plates, exposed to various concentrations of illudins for 2 hours, pulsed with [^3 H]-thymidine for one to two hours and harvested onto glass filters. The filter papers were added to vials containing scintillation fluid and residual radioactivity determined in a beta (scintillation) counter.
(§2) two hour exposure to the toxins (N - 3).

[2] = tested on: MCF7-wt parent (Breast) cells; test: sensitivity of mdr lines, MCF7-wt parent; type: cell-based; conditions: Homo sapiens
Colon 38 = test: zone of inhibition, Colon 38
CEM AraC variant cells = test: sensitivity of mdr lines, CEM AraC; type: cell-based
[3] = tested on: CEM Dox (gp170+) variant cells; test: sensitivity of mdr lines, CEM Dox; type: cell-based
[4] = tested on: CEM VLB100 (gp170+) variant cells; test: sensitivity of mdr lines, CEM VLB100; type: cell-based
242, melanoma = test: inhibition of thymidine incorporation after two hour exposure, 242; type: cell-based; conditions: 2 h; Table 1; 242, two hour exposure
Procedure: as §1, §2

8392 cells (B-cell) = test: cells; type: cell-based; conditions: 2 h
Go = test: zone of inhibition, Go
[5] = tested on: human lung adenocarcinoma MV522; conditions: in vivo
547, ovarian = test: inhibition of thymidine incorporation after two hour exposure, 547; type: cell-based; conditions: 2 h; Table 1; 547, two hour exposure
Procedure: as §1, §2

HL-60 ADR (gp150+) cells = test: sensitivity of mdr lines, HL-60 ADR; type: cell-based; conditions: Homo sapiens, HL60/ADR
[6] = tested on: human lung adenocarcinoma MV522; test: animal or person; conditions: MV522, ip, read-out: life span
[7] = tested on: MDA-231 parent (Breast) cells; test: sensitivity of mdr lines, MDA-231 parent; type: cell-based; conditions: Homo sapiens, MDA-MB-231
HL60 cells (myeloid) = test: cells; type: cell-based, human; conditions: Homo sapiens, HL-60, 2 h
KB C-1 (gp170+) cells = test: sensitivity of mdr lines, KB C-1; type: cell-based; conditions: KBC-1
[8] = tested on: L1210 DDPt (cis-plat) cells; test: sensitivity of mdr lines, L1210 DDPt; type: cell-based; conditions: Mus musculus
[9] = tested on: MCF7 ADR (GSH-transferase) cells; test: cells; type: cell-based; conditions: Homo sapiens
[10] = tested on: L1210 CPA (cyclophos) cells; test: sensitivity of mdr lines, L1210 CPA; type: cell-based; conditions: Mus musculus
8402, T-cell = test: inhibition of thymidine incorporation after two hour exposure, 8402; type: cell-based; conditions: 2 h, Table 1, 8402, two hour exposure
Procedure: as §1, §2

KB parent cells = test: sensitivity of mdr lines, KB parent; type: cell-based
HL-60 parent cells = test: sensitivity of mdr lines, HL-60 parent; type: cell-based; conditions: Homo sapiens
KB VBL (gp170+) cells = test: sensitivity of mdr lines, KB VBL; type: cell-based
MV522 = test: cells; type: cell-based; conditions: Homo sapiens, MV522, 48 h, read-out: 48 hour IC50
MV522 cells = test: cells; type: cell-based, human; conditions: Homo sapiens, MV522, 2 h, read-out: Two hour IC50
[11] = tested on: L1210 PAM (melphalan) cells; test: sensitivity of mdr lines, L1210 PAM; type: cell-based; conditions: Mus musculus
L1210 = test: zone of inhibition / colony formation, L1210
L1210 BCNU cells = test: sensitivity of mdr lines, L1210 BCNU; type: cell-based; conditions: Mus musculus
CEM parent cells = test: sensitivity of mdr lines, CEM parent; type: cell-based
HL60 cells = test: cells; type: cell-based; conditions: Homo sapiens, HL-60, 48 h, read-out: 48 hour IC50
[12] = tested on: MDA-231 3-1 (gp170+) cells; test: sensitivity of mdr lines, MDA-231 3-1; type: cell-based; conditions: Homo sapiens, MDA-MB-231
HL-60 cells = test: cells; type: cell-based, human; conditions: Homo sapiens, HL-60
MDA-231, breast = test: cells; type: cell-based
MCF-7, breast = test: cells; type: cell-based, human
L1210 parent cells = test: sensitivity of mdr lines, L1210 parent; type: cell-based; conditions: Mus musculus
CFU-GM = test: colony formation zone size, CFU-GM; conditions: CFU-GM
8392 cells = test: cells; type: cell-based; conditions: 48 h, read-out: 48 hour IC50
C1498 cells = test: C1498 syngeneic mouse AML model, increased life span; type: in vivo
Procedure: In collaboration, the in vivo effects of dehydroilludin M was again studied. Initially the compound was studied against L1210 cells. […] The dehydroilludin M was then administered as a 24 hour infusion (5.0 mg/kg); the ILS was 11%. After we became aware of the presence of the energy-dependent uptake in human myelocytic cells, dehydroilludin M was screened for in vivo […], produced an ILS of 35%.

Compound: CC1=C2C(=C[C@@](C)(CO)C2O)C(=O)[C@](C)(O)C12CC2 (stereo partly shown) [Illudin S]
- tumor growth [1]: tumor growth delay
- IC50 (CEM VM-1 variant cells): 16.2 ± 6.4 nM
- IC50 (SL-2, murine (thymic)): 142 ± 15 nM
- IC50 ([2]; MCF7-wt Parent, read-out: Sensitivity of mdr lines): 0.88 ± 0.11 nM
- IC50 ([2]; MCF7-wt, read-out: parent IC50): 0.88 nM
- Zone of Inhibition (Colon 38; Colon 38, 0.63 ug/disc): 0
- Zone of Inhibition (Colon 38; Colon 38, 1.25 ug/disc): 0
- Zone of Inhibition (Colon 38; Colon 38, 2.50 ug/disc): 30
- IC50 (CEM AraC variant cells): 14 nM
- IC50 [3]: 14 nM
- IC50 [4]: 3.7 ± 0.7 nM
- IC50 (242, melanoma): 607 ± 70 nM
- IC50 (8392 cells (B-cell)): 236 ± 31 nM
- IC50 (8392 cells (B-cell); read-out: Two hour IC50): 236 ± 2 nM
- Zone of Inhibition (Go; 0.63 ug/disc): 3
- Zone of Inhibition (Go; 1.25 ug/disc): 70
- Zone of Inhibition (Go; 2.50 ug/disc): 240
- life span versus control [5]: no significant increase in the life span
- IC50 (547, ovarian): 607 ± 110 nM
- IC50 (HL-60 ADR (gp150+) cells): 1.9 ± 0.8 nM
- response vs control in vivo at 0.25 mg/kg [6]: 104 ± 20%
- response vs control in vivo at 2.5 mg/kg [6]: < 26%
- IC50 [7]: 0.85 ± 0.23 nM
- IC50 (HL60 cells (myeloid)): 7 ± 1 nM
- IC50 (HL60 cells (myeloid); read-out: Two hour IC50): 10 ± 1 nM
- IC50 (KB C-1 (gp170+) cells): 0.69 ± 0.15 nM
- IC50 [8]: 0.46 ± 0.12 nM
- IC50 ([9]; NCI/ADR-RES, read-out: Sensitivity of mdr lines): 3.7 ± 0.4 nM
- IC50 ([9]; read-out: daughter line IC50): 3.7 nM
- IC50 [10]: 0.46 ± 0.12 nM
- IC50 (8402, T-cell): 669 ± 196 nM
- IC50 (KB parent cells): 0.58 ± 0.12 nM
- IC50 (HL-60 parent cells): 3.1 ± 1.1 nM
- IC50 (KB VBL (gp170+) cells): 0.69 ± 0.11 nM
- IC50 (MV522): 4 ± 1 nM
- IC50 (MV522 cells): 19 ± 6 nM
- IC50 [11]: 0.62 ± 0.15 nM
- Zone of Inhibition (L1210; L1210, 0.63 ug/disc): 320
- Zone of Inhibition (L1210; L1210, 1.25 ug/disc): 400
- Zone of Inhibition (L1210; L1210, 2.50 ug/disc): 500
- Zone Size (L1210; L1210, dilution 1/1,000): 850
- Zone Size (L1210; L1210, dilution 1/4,000): 600
- Zone Size (L1210; L1210, dilution 1/16,000): 550
- Zone Size (L1210; L1210, dilution 1/64,000): 300
- IC50 (L1210 BCNU cells): 0.58 ± 0.08 nM
- IC50 (CEM parent cells): 8.3 ± 2.6 nM
- IC50 (HL60 cells): 10 ± 1 nM
- IC50 [12]: 0.89 ± 0.38 nM
- IC50 (HL-60 cells): 10 nM
- sensitivity to illudin S (MDA-231, breast): markedly sensitive
- IC50 (MDA-231, breast; Homo sapiens, MDA-MB-231, 2 h): 2 ± 0.2 nM
- sensitivity to illudin S (MCF-7, breast): markedly sensitive
- IC50 (MCF-7, breast; Homo sapiens, MCF7, 2 h): 58 ± 5 nM
- IC50 (L1210 parent cells): 0.42 ± 0.08 nM
- Zone Size (CFU-GM; dilution 1/1,000): 400
- Zone Size (CFU-GM; dilution 1/4,000): 200
- Zone Size (CFU-GM; dilution 1/16,000): 0
- Zone Size (CFU-GM; dilution 1/64,000): 0
- IC50 (8392 cells): 8 ± 2 nM
- ILS (C1498 cells; 2.5 mg/kg IP once a day for 5 days): 44%
- ILS (C1498 cells; single bolus, 2.5 mg/kg IP): 35%
